From PubChem BioAssay (NCI)
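Briefly, cells in 96-well plates were exposed to five compound concentrations for 48 h, and endpoints were estimated by linear interpolation. TGI: total growth inhibition.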

How the values were obtained:
Assay in all cases: NCI tumour cell line growth inhibition, 48 h
[1] = system: SK-MEL-5 melanoma
[2] = system: A498 renal
[3] = system: LOX IMVI melanoma
[4] = system: SR leukemia
[5] = system: SW-620 colon
[6] = system: CAKI-1 renal
[7] = system: HCC-2998 colon
[8] = system: UACC-62 melanoma
[9] = system: MALME-3M melanoma
[10] = system: K-562 leukemia
[11] = system: IGROV1 ovarian
[12] = system: ACHN renal
[13] = system: UO-31 renal
[14] = system: M14 melanoma
[15] = system: DLD-1 colon
[16] = system: HCT-116 colon
[17] = system: NCI-H522 lung
[18] = system: TK-10 renal
[19] = system: SK-MEL-28 melanoma
[20] = system: HOP-18 NSCLC
[21] = system: DMS 114 small cell lung
[22] = system: A549 NSCLC
[23] = system: NCI-H460 lung
[24] = system: HOP-62 NSCLC
[25] = system: SNB-78 CNS
[26] = system: U251 CNS
[27] = system: SN12C renal
[28] = system: HT29 colon
[29] = system: OVCAR-3 ovarian
[30] = system: RXF 393 renal
[31] = system: OVCAR-4 ovarian
[32] = system: M19-MEL melanoma
[33] = system: UACC-257 melanoma
[34] = system: HOP-92 NSCLC
[35] = system: EKVX NSCLC
[36] = system: SF-295 CNS
[37] = system: LXFL 529 NSCLC
[38] = system: KM20L2 colon
[39] = system: SF-268 CNS
[40] = system: SNB-75 CNS
[41] = system: 786-0 renal
[42] = system: OVCAR-8 ovarian
[43] = system: SF-539 CNS
[44] = system: KM12 colon
[45] = system: NCI-H23 lung
[46] = system: SK-OV-3 ovarian
[47] = system: HL-60(TB) leukemia
[48] = system: MOLT-4 leukemia
[49] = system: CCRF-CEM leukemia
[50] = system: SNB-19 CNS
[51] = system: NCI-H226 lung
[52] = system: XF 498 CNS
[53] = system: COLO 205 colon
[54] = system: RXF-631 renal
[55] = system: SK-MEL-2 melanoma
[56] = system: OVCAR-5 ovarian
[57] = system: DMS 273 small cell lung
[58] = system: HCT-15 colon
[59] = system: RPMI-8226 leukemia
[60] = system: NCI/ADR-RES ovarian
[61] = system: SN12K1 renal
[62] = system: P388/ADR leukemia
[63] = system: MCF7 breast
[64] = system: P388 leukemia

O=C(/C=C/c1ccc(O)cc1)c1cc(Cl)ccc1O
TGI [1]: > 100 µM
TGI [2]: > 100 µM
TGI [3]: 56.2 µM
TGI [4]: 54.6 µM
TGI [5]: > 100 µM
TGI [6]: > 100 µM
TGI [7]: > 100 µM
TGI [8]: > 100 µM
TGI [9]: > 100 µM
TGI [10]: 71.3 µM
TGI [11]: > 100 µM
TGI [12]: > 100 µM
TGI [13]: 70.5 µM
TGI [14]: > 100 µM
TGI [15]: > 100 µM
TGI [16]: 58 µM
TGI [17]: 36.2 µM
TGI [18]: > 100 µM
TGI [19]: > 100 µM
TGI [20]: > 100 µM
TGI [21]: 67.4 µM
TGI [22]: > 100 µM
TGI [23]: > 100 µM
TGI [24]: > 100 µM
TGI [25]: > 100 µM
TGI [26]: > 100 µM
TGI [27]: > 100 µM
TGI [28]: > 100 µM
TGI [29]: > 100 µM
TGI [30]: 88.9 µM
TGI [31]: > 100 µM
TGI [32]: > 100 µM
TGI [33]: > 100 µM
TGI [34]: > 100 µM
TGI [35]: > 100 µM
TGI [36]: > 100 µM
TGI [37]: > 100 µM
TGI [38]: > 100 µM
TGI [39]: > 100 µM
TGI [40]: > 100 µM
TGI [41]: > 100 µM
TGI [42]: > 100 µM
TGI [43]: 44.9 µM
TGI [44]: > 100 µM
TGI [45]: > 100 µM
TGI [46]: > 100 µM
TGI [47]: 45.8 µM
TGI [48]: 55.8 µM
TGI [49]: 44.8 µM
TGI [50]: > 100 µM
TGI [51]: > 100 µM
TGI [52]: 85 µM
TGI [53]: > 100 µM

CCOC(=O)c1c2ccc(/C=C/c3ccccc3)ccc-2c(C(=O)OCC)c1N
TGI [1]: > 100 µM
TGI [2]: 99.8 µM
TGI [3]: > 100 µM
TGI [4]: > 100 µM
TGI [5]: > 100 µM
TGI [6]: > 100 µM
TGI [7]: > 100 µM
TGI [8]: > 100 µM
TGI [9]: > 100 µM
TGI [54]: > 100 µM
TGI [10]: > 100 µM
TGI [11]: > 100 µM
TGI [12]: > 100 µM
TGI [13]: > 100 µM
TGI [14]: > 100 µM
TGI [15]: > 100 µM
TGI [16]: > 100 µM
TGI [55]: > 100 µM
TGI [17]: > 100 µM
TGI [18]: > 100 µM
TGI [19]: > 100 µM
TGI [20]: > 100 µM
TGI [21]: > 100 µM
TGI [22]: > 100 µM
TGI [23]: > 100 µM
TGI [28]: > 100 µM
TGI [29]: > 100 µM
TGI [56]: > 100 µM
TGI [30]: > 100 µM
TGI [31]: > 100 µM
TGI [32]: > 100 µM
TGI [33]: > 100 µM
TGI [34]: > 100 µM
TGI [35]: > 100 µM
TGI [36]: > 100 µM
TGI [37]: > 100 µM
TGI [38]: > 100 µM
TGI [39]: > 100 µM
TGI [40]: 99.4 µM
TGI [41]: > 100 µM
TGI [43]: > 100 µM
TGI [44]: > 100 µM
TGI [45]: > 100 µM
TGI [46]: > 100 µM
TGI [47]: > 100 µM
TGI [48]: > 100 µM
TGI [49]: > 100 µM
TGI [57]: > 100 µM
TGI [50]: > 100 µM
TGI [51]: > 100 µM
TGI [53]: > 100 µM
TGI [58]: > 100 µM

CC1C(=O)C(C)C(c2ccco2)N(N=O)C1c1ccco1 (stereo unspecified)
TGI [1]: > 100 µM
TGI [2]: > 100 µM
TGI [3]: > 100 µM
TGI [5]: > 100 µM
TGI [6]: > 100 µM
TGI [7]: > 100 µM
TGI [8]: > 100 µM
TGI [59]: > 100 µM
TGI [9]: > 100 µM
TGI [60]: > 100 µM
TGI [10]: > 100 µM
TGI [11]: > 100 µM
TGI [61]: > 100 µM
TGI [62]: > 100 µM
TGI [13]: > 100 µM
TGI [15]: > 100 µM
TGI [16]: > 100 µM
TGI [55]: > 100 µM
TGI [17]: > 100 µM
TGI [19]: > 100 µM
TGI [20]: > 100 µM
TGI [22]: > 100 µM
TGI [23]: > 100 µM
TGI [24]: > 100 µM
TGI [25]: > 100 µM
TGI [26]: > 100 µM
TGI [27]: > 100 µM
TGI [28]: > 100 µM
TGI [29]: > 100 µM
TGI [56]: > 100 µM
TGI [30]: > 100 µM
TGI [31]: > 100 µM
TGI [32]: > 100 µM
TGI [33]: > 100 µM
TGI [34]: > 100 µM
TGI [35]: > 100 µM
TGI [36]: > 100 µM
TGI [38]: > 100 µM
TGI [39]: > 100 µM
TGI [40]: > 100 µM
TGI [42]: > 100 µM
TGI [43]: > 100 µM
TGI [44]: > 100 µM
TGI [45]: > 100 µM
TGI [46]: > 100 µM
TGI [47]: > 100 µM
TGI [48]: > 100 µM
TGI [49]: > 100 µM
TGI [57]: > 100 µM
TGI [50]: > 100 µM
TGI [63]: > 100 µM
TGI [64]: > 100 µM
TGI [51]: > 100 µM
TGI [52]: 50.5 µM
TGI [53]: > 100 µM
TGI [58]: > 100 µM
